Data on six compounds can be found in patent US20240358671A1, “COMPOSITIONS AND METHODS TO TREAT SKIN DISORDERS” (THE TRUSTEES OF INDIANA UNIVERSITY, priority 2021, published 2024).

“Also recorded” adds a separate entry of the source.

Assay [1] deals with PPARδ. The assay can be described thus: PPARδ trans-activity assay. Type of assay: cell-based. Conditions: human keratinocytes; 5 μmol long chain ceramides, 48 h. The protocol:
Human keratinocytes cells were treated with 5 μmol of long chain ceramides, C18:0 and C24:0 (Avanti Polar Lipids Inc., Alabama) using Lipofectamine LTX (Thermo Fisher Scientific). Cells were collected 48 h post transfection and nuclear protein was extracted using Nuclear Extraction Kit (RayBiotech) as per manufacturer's protocol. PPARδ trans-activity was measured using PPAR delta Transcription Factor Assay Kit (abcam) as per manufacturer's instructions.

The test system of a further assay is PPARδ promoter. The assay can be described thus: PPARδ promoter assay. Conditions: human keratinocytes; PPARδ promoter reporter; 5 μmol long chain ceramides, 48 h. In kind it is cell-based. Here is the method: PPARδ promoter assay was done as described previously. mNP-Luc (PPARdelta promoter) was a gift (Addgene plasmid #16532; http://n2t.net/addgene:16532; RRID:Addgene_16532. Human keratinocytes cells were co-transfected with the PPARδ promoter reporter construct and treated with 5 μmol of long chain ceramides, C:18 and C:24 (Avanti Polar Lipids Inc., Alabama) using Lipofectamine™ LTX Reagent with PLUS™ Reagent (Thermo Fisher Scientific). Media were collected 48 h post transfection and the secreted GLuc and SEAP activities were measured with the Secrete-Pair Dual Luminescence Assay Kit (GeneCopoeia) according to the manufacturer's protocol using the Berthold Luminometer (Berthold Technologies). Normalized promoter activity has been presented as the ratio of GLuc to SEAP activities.

The next assay relates to Human keratinocytes (HK). The assay is described as follows: Human keratinocytes-Pseudomonas biofilm co-culture conditioned media: keratinocyte ceramide by anti-ceramide immunostaining. Conditions: HK treated with conditioned media (25% v/v) of cells co-cultured with PA biofilm containing ceramidastin 10 μg/ml, 24 h. In kind it is cell-based. From the text:
FIGS. 7A-7U relate to ceramide depletion and ceramidastin rescue. FIGS. 7A-7S: Ceramide depletion, as measured by LC-MS/MS, in cutaneous lipids. Following exposure to bacteria as applicable, lipids were extracted and analyzed via a targeted approach. Data thus obtained were subjected to analysis by ANOVA using R3.5.3 to specifically identify those lipids with significant differences between the three groups. Those with significance as tested by ANOVA were subjected to post hoc analysis using Tukey-HSD with a FDR cutoff of 0.05. Lipids with group differences that passed these thresholds were illustrated as box plots. Skin ceramides have been denoted using the standard nomenclature following the format of fatty acyl type, sphingoid backbone type, and sphingoid backbone length-fatty acyl length. […]
(§1) OCT embedded wound tissue blocks were sectioned using a cryostat. […] To enable fluorescence detection, sections were incubated with appropriate Alexa Fluor® 488 (green, Molecular probes), Alexa Fluor® […] (red, Molecular probes) conjugated secondary antibodies. […] Mosaic images were collected using collected using a Zeiss Axiovert 200 M, inverted fluorescence microscopy or confocal microscopy (LSM880). Image analysis was performed using Zen (Zeiss) software to quantitate fluorescence intensity (fluorescent pixels).

The target of the next assay is T1, PA bcdase (Pseudomonas aeruginosa, UniProt Q9I596).
T1 construct: cutaneous lipids exposed to biofilm-infected keratinocyte conditioned media (CM); endogenous in cells; host or cells: Wild-type Pseudomonas aeruginosa (PAwt) biofilm co-cultured with human keratinocytes; the conditioned medium holds the enzyme
T1 sequence (Q9I596 25-670): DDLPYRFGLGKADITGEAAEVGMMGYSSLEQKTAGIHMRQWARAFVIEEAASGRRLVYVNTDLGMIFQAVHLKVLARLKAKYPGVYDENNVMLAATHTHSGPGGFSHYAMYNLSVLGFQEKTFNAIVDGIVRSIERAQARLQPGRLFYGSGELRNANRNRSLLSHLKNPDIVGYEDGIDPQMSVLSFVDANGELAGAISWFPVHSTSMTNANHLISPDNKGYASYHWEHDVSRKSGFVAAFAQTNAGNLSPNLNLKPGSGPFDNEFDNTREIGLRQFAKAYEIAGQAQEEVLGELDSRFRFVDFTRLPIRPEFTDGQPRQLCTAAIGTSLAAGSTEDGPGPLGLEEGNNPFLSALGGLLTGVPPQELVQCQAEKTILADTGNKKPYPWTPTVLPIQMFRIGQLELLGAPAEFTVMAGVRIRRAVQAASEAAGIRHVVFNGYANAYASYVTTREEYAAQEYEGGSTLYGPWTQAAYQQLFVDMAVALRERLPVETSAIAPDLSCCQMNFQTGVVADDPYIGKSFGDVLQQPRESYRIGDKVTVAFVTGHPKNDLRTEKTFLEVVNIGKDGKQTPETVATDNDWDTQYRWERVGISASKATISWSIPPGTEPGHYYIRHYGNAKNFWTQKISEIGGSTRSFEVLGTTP
The assay is described as follows: Ex vivo extracted skin lipids treated with biofilm-conditioned media, ceramides by LC-MS/MS. Type of assay: biochemical. Conditions: conditioned media contained ceramidastin. Here is the method: FIGS. 8A-8N illustrate ceramide depletion. FIGS. 8A-8L Ceramide depletion, as measured by LC-MS/MS, in cutaneous lipids exposed to biofilm-infected keratinocyte conditioned media (CM). As indicated, to test the significance of PA bcdase, the CM contained ceramidastin (CST). Lipids were extracted and analyzed using an untargeted approach as described in Materials and Methods. The resultant data were analyzed using R 3.3. Wilcoxon Rank-Sum test was used for all group analyses and Kruskal-Wallis followed by Benjamini Hochberg correction was performed for multiple comparisons with significance at p<0.05. Skin ceramides have been denoted using the standard nomenclature following the format of fatty acyl type, sphingoid backbone type, and sphingoid backbone length-fatty acyl length. NS=Cer 2 (with non-hydroxy fatty acid, sphingoid backbone); NP=Cer 3 (non-hydroxy fatty acid, phytopshingoid backbone); NH=Cer 8 (non-hydroxy fatty acid, 6-hydroxy sphingoid backbone); NDS=Cer 10 (non-hydroxy fatty acid, dihydroxy sphingoid backbone); AS=Cer 5 (α-hydroxy fatty acid, sphingoid backbone); AP=Cer 6 (α-hydroxy fatty acid, phytosphingoid backbone). The Y-axis values are in mol %. (M) Digital wound images and planimetry shown. […]
Untargeted lipidomics was undertaken as previously published. […] Finally, lipids were analyzed via the use of MS/MSALL approach as previously disclosed. […]

In assay [2] the test system is PPARδ. The assay can be described thus: PPARδ expression in human keratinocyte biofilm infection. In kind it is cell-based. Conditions: in the presence of ceramidastin. The protocol: (§2) Bacterial biofilms were co-cultured with human keratinocytes cells following the method adapted from Anderson. The confluent cultures of human keratinocytes cells were inoculated with bacterial cultures of PAwt or PAΔcer (10^5 CFU/ml) in antibiotic free culture media. The plates were incubated for 1 h at 37° C. and 5% CO2. Post 1 h, fresh DMEM (without antibiotics) supplemented with 0.4% arginine was added to the plate. Post 7-8 hours, cells were harvested. The co-culture media was filtered using 0.2 μm filters and used for ceramidastin experiment. Human keratinocytes were treated with conditioned media (25% v/v) of cells co-cultured with PAwt biofilm containing ceramidastin (10 μg/ml) for 24 h.
Western blot was performed using antibodies against anti-PPARδ (Thermo Scientific, 1:500), anti-CerS3 (Origene, 1:500). β-actin (Sigma Aldrich, 1:5000) was used as housekeeping.

The subject of another assay is ABCA12. The assay is described as follows: ABCA12 in human keratinocytes after PAwt biofilm infection. In kind it is cell-based. The protocol: as §2, §1
In another assay the test system is CerS3. The assay is described as follows: CerS3 expression in human keratinocytes treated with PPARδ agonist or antagonist, qPCR. Conditions: 1 μmol/ml. In kind it is cell-based. The text has this:
FIGS. 11A-11O illustrate additional experimental results. FIG. 11A: Vector map of PPARδ promoter luciferase reporter. FIGS. 11B-11C: PPARδ drives CerS3 expression. CerS3 expression in human keratinocytes (HK) treated with PPARδ agonist (GW501516, 1 μmol/ml) or antagonist (GSK0660, 1 μmol/ml) as measured by qPCR. Data presented as mean±SEM (n=5). FIGS. 11D-11F: Upregulation of DNA methyl transferases in S-1-P treated HK. Data presented as mean±SEM (n=8). FIGS. 11G-11J: Induction of histone deacetylases in S-1P treated HK. Data presented as mean±SEM (n=8). FIGS. 11K-11N) Other histone deacetylases in S-1P treated HK. […] Data presented as mean±SEM, (n=8). FIG. 11O: miR-106b expression in HK treated with S-1-P (5 μmol/ml). Data presented as mean±SEM (n=8).
A general note: Real-time PCR tracks product formation cycle by cycle.

The test system of the next assay is S. aureus. Conditions: cited from earlier work.
Another assay has as its system Streptococcus pyogenes. Conditions: cited from earlier work.
In another assay the test system is Micrococcus luteus. Conditions: cited from earlier work.
The test system of another assay is Propionibacterium acnes. Conditions: cited from earlier work.
Assay [3] concerns Staphylococcus epidermidis. Conditions: cited from earlier work.
For another assay, the system named is P. aeruginosa. Conditions: cited from earlier work.
In assay [4] the test system is Staphylococcus epidermidis biofilm. Conditions: cited from earlier work.

As for `CCCCCCCCCCCCC/C=C/[C@@H](O)[C@H](CO)NC(=O)CCCCCCCCCCCCCCCCC` [C18], the PPARδ transactivation result in the assay with PPARδ [1] is listed as “induced”. Besides, in the assay with PPARδ promoter, the PPARδ transcription result is listed as “induced”.
For `CCCCCCCCCCCCC/C=C/[C@@H](O)[C@H](CO)NC(=O)CCCCCCCCCCCCCCCCCCCCCCC` [C24], in the assay with PPARδ [1], the PPARδ transactivation entry is “induced”. In addition, in the assay on PPARδ promoter, the PPARδ transcription result was “induced”.
Regarding `CCCCCCC(O)C1C2=C(CC(C(O)C(O)C/C=C/CO)CC3=C(C(=O)OC3=O)C1O)C(=O)OC2=O` (centres unmarked) [Ceramidastin], in the assay on Human keratinocytes (HK), the “keratinocyte ceramide after PAwt biofilm infection” value is “rescued keratinocyte ceramide against loss; also recorded: rescued depletion of keratinocyte ceramide”. For the same compound, the “ceramides in extracted skin lipids treated with biofilm-conditioned media” value at PA bcdase is on record as “rescue of ceramides”. Besides, the “PPARδ expression blunted by biofilm infection” value in the assay on PPARδ [2] is “rescued”. The “loss of ABCA12 in response to biofilm infection by PAwt” value in the assay with ABCA12 is recorded as “prevented”.
`COC(=O)c1sccc1S(=O)(=O)Nc1ccc(Nc2ccccc2)cc1OC` [GSK0660]: in the assay with CerS3, the CerS3 expression result is given as “blunted the expression of CerS3”.
For the compound `Cc1cc(SCc2sc(-c3ccc(C(F)(F)F)cc3)nc2C)ccc1OCC(=O)O` [GW501516], the CerS3 expression result in the assay on CerS3 was “increased expression of CerS3”.
As for `CCCCCCCCCCCCC/C=C/[C@@H](O)[C@@H](N)CO` [Sphingosine], in the assay with S. aureus, the “killing of S. aureus” value is reported as “effectively killed”. Also, the “killing of Streptococcus pyogenes” value in the assay on Streptococcus pyogenes is “effectively killed”. Moreover, the “killing of Micrococcus luteus” value with Micrococcus luteus was “effectively killed”. Besides, the “killing of Propionibacterium acnes” value in the assay on Propionibacterium acnes is on record as “effectively killed”. Besides, the “killing of Staphylococcus epidermidis” value in [3] is on record as “effectively killed”. Further, in the assay on P. aeruginosa, the “killing of P. aeruginosa” value is given as “moderately killed”. In addition, the “Staphylococcus epidermidis biofilm on orthopedic implant materials” value in assay [4] was “prevented and eliminated”.
